Laboratory results published in PubChem BioAssay (NCI).
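Cultured in 96-well plates, cells were exposed to test compound for 48 hours across five concentrations. GI50: concentration for 50% inhibition of growth. TGI is the concentration that stops growth completely.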

What was measured:
Experiment in all cases: NCI anticancer screen, dose series, 48 h
DLD-1 colon = system: DLD-1 colon
DMS 273 small cell lung = system: DMS 273 small cell lung
HCT-15 colon = system: HCT-15 colon
KM20L2 colon = system: KM20L2 colon
M14 melanoma = system: M14 melanoma
NCI-H460 lung = system: NCI-H460 lung
SK-OV-3 ovarian = system: SK-OV-3 ovarian
U251 CNS = system: U251 CNS
XF 498 CNS = system: XF 498 CNS
CAKI-1 renal = system: CAKI-1 renal
RPMI-8226 leukemia = system: RPMI-8226 leukemia
HS 578T breast = system: HS 578T breast

| Compound | TGI (DLD-1 colon) | TGI (DMS 273 small cell lung) | TGI (HCT-15 colon) | TGI (KM20L2 colon) | TGI (M14 melanoma) | TGI (NCI-H460 lung) | TGI (SK-OV-3 ovarian) | TGI (U251 CNS) | TGI (XF 498 CNS) | TGI (CAKI-1 renal) | TGI (RPMI-8226 leukemia) | TGI (HS 578T breast) | GI50 (CAKI-1 renal) | GI50 (HCT-15 colon) | GI50 (HS 578T breast) | GI50 (M14 melanoma) | GI50 (NCI-H460 lung) | GI50 (RPMI-8226 leukemia) | GI50 (SK-OV-3 ovarian) | GI50 (U251 CNS) |
| --- | --- | --- | --- | --- | --- | --- | --- | --- | --- | --- | --- | --- | --- | --- | --- | --- | --- | --- | --- | --- |
| Cc1cn([C@@H]2C[C@H](CO)[C@@H](O)C2)c(=O)[nH]c1=O | > 100 µM | > 100 µM | > 100 µM | > 100 µM | > 100 µM | > 100 µM | > 100 µM | > 100 µM | > 100 µM | – | – | – | – | – | – | – | – | – | – | – |
| Cn1ccnc1C(O)(c1nccn1C)c1nccn1C | > 100 µM | – | – | – | > 100 µM | > 100 µM | – | > 100 µM | > 100 µM | > 100 µM | – | – | – | – | – | – | – | – | – | – |
| CSC(=Nc1ccccc1)N(c1ccccc1)c1nc(=[N+](C)C)ss1 | – | 2.2 µM | 13.7 µM | 13.7 µM | 2.5 µM | 18.1 µM | 38.5 µM | 17.2 µM | – | 11.3 µM | 3.14 µM | – | – | – | – | – | – | – | – | – |
| CC(=O)OCC1OC(n2cc(I)c(=O)[nH]c2=O)C(OC(C)=O)C(OC(C)=O)C1OC(C)=O (configuration not stated) | > 100 µM | > 100 µM | > 100 µM | > 100 µM | > 100 µM | > 100 µM | > 100 µM | > 100 µM | > 100 µM | > 100 µM | > 100 µM | – | – | – | – | – | – | – | – | – |
| O=C1Sc2ccccc2C(=O)N2CSCC12 (configuration not stated) | > 100 µM | > 100 µM | – | > 100 µM | > 100 µM | > 100 µM | > 100 µM | > 100 µM | > 100 µM | – | > 100 µM | – | – | – | – | – | – | – | – | – |
| N#CC1=C(c2ccccc2)NNC(c2ccc(Cl)cc2)CC1=O (configuration not stated) | > 100 µM | – | > 100 µM | 61.2 µM | 68.9 µM | > 100 µM | > 100 µM | > 100 µM | 77.1 µM | > 100 µM | > 100 µM | – | – | – | – | – | – | – | – | – |
| COc1nc2ncc([C@@H](OC(C)=O)[C@@H](COC(C)=O)OC(C)=O)nc2c(=O)[nH]1 | – | – | > 100 µM | – | > 100 µM | > 100 µM | > 100 µM | > 100 µM | – | > 100 µM | > 100 µM | > 100 µM | – | – | – | – | – | – | – | – |
| Nc1nc(N)c(N=O)c(Nc2ccc(Br)cc2)n1 | > 100 µM | 79.5 µM | > 100 µM | 95.7 µM | 52.8 µM | > 100 µM | > 100 µM | 59 µM | 65.4 µM | > 100 µM | – | – | – | – | – | – | – | – | – | – |
| COc1cc2cc(Oc3ccc(NC(=O)c4cc(C(F)(F)F)cc(C(F)(F)F)c4)cc3)c(C)nc2cc1OC | – | – | > 50 µM | – | > 50 µM | > 50 µM | > 50 µM | > 50 µM | – | > 50 µM | > 50 µM | > 50 µM | 1.5 µM | 2.75 µM | 9.13 µM | 3.23 µM | 2.16 µM | 1.57 µM | > 50 µM | 2.64 µM |
| CC12CCC3C(CCC4CC(OC(=O)Cc5ccc(N(CCCl)CCCl)cc5)CCC43C)C1CCC(=O)N2 (configuration not stated) | 33 µM | 25.6 µM | 28.3 µM | 31.2 µM | 32.2 µM | 22.4 µM | 32.5 µM | 28.4 µM | 30.8 µM | 29.5 µM | 35.3 µM | – | – | – | – | – | – | – | – | – |
| Cc1cn(-c2cc(C(=O)Nc3cccc(-n4ccc5c(NC(=O)c6ccccc6)nccc54)c3)cc(C(F)(F)F)c2)cn1 | – | – | 4.71 µM | – | 3.29 µM | 1.2 µM | 3.53 µM | 1.48 µM | – | 2.99 µM | 4.02 µM | 1.73 µM | 0.52 µM | 0.29 µM | 0.252 µM | 0.452 µM | 0.29 µM | 0.426 µM | 0.325 µM | 0.29 µM |
| COc1cc(-c2cc(=O)c3cc4c(=O)cc(-c5cc(OC)c(OC)c(OC)c5)oc4cc3o2)cc(OC)c1OC | – | – | > 100 µM | – | > 100 µM | > 100 µM | 41.4 µM | 23.4 µM | – | > 31.6 µM | > 100 µM | 97.2 µM | – | – | – | – | – | – | – | – |
| COc1c(O)c2c3c(c(C)cc(O)c3c1O)C(=O)C(O)(C(C)(C)C(C)=O)C2=O (configuration not stated) | > 100 µM | > 100 µM | > 100 µM | > 100 µM | > 100 µM | > 100 µM | > 100 µM | > 100 µM | > 100 µM | > 100 µM | > 100 µM | – | – | – | – | – | – | – | – | – |
| CSc1c(C#N)c(N)n(-c2ccc(C)cc2)c(=O)c1C#N | – | – | > 100 µM | – | > 100 µM | > 100 µM | > 100 µM | > 100 µM | – | > 100 µM | > 100 µM | > 100 µM | – | – | – | – | – | – | – | – |
